Results on seven compounds are retold here after patent US7345018B2, “Method of treating side effects induced by therapeutic agents” (Reception ApS, priority 2002, dated 2008).

Data set [1] has as its target T1, megalin (Mus musculus, UniProt A2ARV4).
T1 construct: from tissue; host or cells: kidney of living wildtype mice (in vivo); the knockout mice lack the receptor
The experiment in a line: Uptake of radioactively labelled gentamicin in wildtype and megalin-deficient (knockout) mice. The class given is in vivo. The settings on record: wildtype mice, after 24 hours, radioactively labelled. How it is done: (§1) Radioactively labelled aminoglycosides (gentamicin) were injected into 26 normal (wildtype) and into 3 megalin-deficient mice (knockout). After 24 hours, the secretion of the aminoglycosides into the urine and their accumulation in the kidneys were determined. In wildtype mice, about 10% of the administered aminoglycosides are accumulated in the kidneys and 40% are secreted into the urine.
(§2) In one embodiment the animal model is a mouse model with an induced megalin gene defect (knockout mouse; Nykjaer, A. et al., Cell 96, 507-515). In these animals, the contribution of megalin and other receptor-mediated or receptor-independent processes to the drug uptake into the kidneys may be tested. The amount of intracellular accumulation of the drug in question as compared to a control having sufficient megalin indicates whether the mechanism of side effects is intracellular accumulation through megalin binding or some other mechanism.

The subject of data set [2] is megalin. Described as above. The class given is in vivo, mouse. The settings on record: megalin-deficient knockout mice, after 24 hours. How it is done: as §1, §2
Data set [3] has as its system megalin. The experiment in a line: BIAcore analysis of binding to megalin. Background: SPR reads the build-up and loss of mass on a sensor chip optically.
For data set [4], the target named is T2, cubilin (Oryctolagus cuniculus, UniProt U3KLX7).
T2 construct: Megalin and cubilin purified from rabbit kidney cortex; from tissue
The experiment in a line: BIAcore analysis of binding to cubilin. Conditions: for effect of reduction of disulfide-bridges on binding to cubilin: reduced receptor (reducing agent).

For data set [5], the system named is mouse kidney. The experiment in a line: Inhibition of uptake of radio-labeled gentamicin into mouse kidney. The class given is in vivo. Conditions: intravenous co-infusion, FIG. 5. The text has this: FIG. 5: Inhibition of uptake of radio-labeled gentamicin into mouse kidney
The drugs were administrated intravenously. […] This is most likely because infused RAP rapidly is cleared from the circulation by uptake into the liver.

Data set [6] has as its system cells expressing megalin and cubilin. The experiment in a line: Inhibition of cellular accumulation of radiolabeled gentamicin. Type of data set: cell-based. The settings on record: FIG. 4.
The target of data set [7] is T1, megalin. The experiment in a line: Suppression of radioactive gentamicin uptake into the kidneys of wildtype mice by megalin antagonist. The class given is in vivo. Conditions: co-injection with radioactive gentamicin. How it is done: Two groups of wildtype mice received an injection of radioactive gentamicin. One group was also injected with polymyxin B, a substance that binds with a high affinity to megalin and displaces gentamicin from the receptor. The administration of polymyxin B reduces the uptake of aminoglycosides into the kidneys by more than 60%.

The test system of data set [8] is megalin. Conditions: relative to gentamicin; cited from earlier work.
For data set [9] the following is noted: patients, nephro- and ototoxic side effects; cited from earlier work.
Setting [10] is: addition of EDTA (calcium depletion).

T1 sequence (A2ARV4 26-4660): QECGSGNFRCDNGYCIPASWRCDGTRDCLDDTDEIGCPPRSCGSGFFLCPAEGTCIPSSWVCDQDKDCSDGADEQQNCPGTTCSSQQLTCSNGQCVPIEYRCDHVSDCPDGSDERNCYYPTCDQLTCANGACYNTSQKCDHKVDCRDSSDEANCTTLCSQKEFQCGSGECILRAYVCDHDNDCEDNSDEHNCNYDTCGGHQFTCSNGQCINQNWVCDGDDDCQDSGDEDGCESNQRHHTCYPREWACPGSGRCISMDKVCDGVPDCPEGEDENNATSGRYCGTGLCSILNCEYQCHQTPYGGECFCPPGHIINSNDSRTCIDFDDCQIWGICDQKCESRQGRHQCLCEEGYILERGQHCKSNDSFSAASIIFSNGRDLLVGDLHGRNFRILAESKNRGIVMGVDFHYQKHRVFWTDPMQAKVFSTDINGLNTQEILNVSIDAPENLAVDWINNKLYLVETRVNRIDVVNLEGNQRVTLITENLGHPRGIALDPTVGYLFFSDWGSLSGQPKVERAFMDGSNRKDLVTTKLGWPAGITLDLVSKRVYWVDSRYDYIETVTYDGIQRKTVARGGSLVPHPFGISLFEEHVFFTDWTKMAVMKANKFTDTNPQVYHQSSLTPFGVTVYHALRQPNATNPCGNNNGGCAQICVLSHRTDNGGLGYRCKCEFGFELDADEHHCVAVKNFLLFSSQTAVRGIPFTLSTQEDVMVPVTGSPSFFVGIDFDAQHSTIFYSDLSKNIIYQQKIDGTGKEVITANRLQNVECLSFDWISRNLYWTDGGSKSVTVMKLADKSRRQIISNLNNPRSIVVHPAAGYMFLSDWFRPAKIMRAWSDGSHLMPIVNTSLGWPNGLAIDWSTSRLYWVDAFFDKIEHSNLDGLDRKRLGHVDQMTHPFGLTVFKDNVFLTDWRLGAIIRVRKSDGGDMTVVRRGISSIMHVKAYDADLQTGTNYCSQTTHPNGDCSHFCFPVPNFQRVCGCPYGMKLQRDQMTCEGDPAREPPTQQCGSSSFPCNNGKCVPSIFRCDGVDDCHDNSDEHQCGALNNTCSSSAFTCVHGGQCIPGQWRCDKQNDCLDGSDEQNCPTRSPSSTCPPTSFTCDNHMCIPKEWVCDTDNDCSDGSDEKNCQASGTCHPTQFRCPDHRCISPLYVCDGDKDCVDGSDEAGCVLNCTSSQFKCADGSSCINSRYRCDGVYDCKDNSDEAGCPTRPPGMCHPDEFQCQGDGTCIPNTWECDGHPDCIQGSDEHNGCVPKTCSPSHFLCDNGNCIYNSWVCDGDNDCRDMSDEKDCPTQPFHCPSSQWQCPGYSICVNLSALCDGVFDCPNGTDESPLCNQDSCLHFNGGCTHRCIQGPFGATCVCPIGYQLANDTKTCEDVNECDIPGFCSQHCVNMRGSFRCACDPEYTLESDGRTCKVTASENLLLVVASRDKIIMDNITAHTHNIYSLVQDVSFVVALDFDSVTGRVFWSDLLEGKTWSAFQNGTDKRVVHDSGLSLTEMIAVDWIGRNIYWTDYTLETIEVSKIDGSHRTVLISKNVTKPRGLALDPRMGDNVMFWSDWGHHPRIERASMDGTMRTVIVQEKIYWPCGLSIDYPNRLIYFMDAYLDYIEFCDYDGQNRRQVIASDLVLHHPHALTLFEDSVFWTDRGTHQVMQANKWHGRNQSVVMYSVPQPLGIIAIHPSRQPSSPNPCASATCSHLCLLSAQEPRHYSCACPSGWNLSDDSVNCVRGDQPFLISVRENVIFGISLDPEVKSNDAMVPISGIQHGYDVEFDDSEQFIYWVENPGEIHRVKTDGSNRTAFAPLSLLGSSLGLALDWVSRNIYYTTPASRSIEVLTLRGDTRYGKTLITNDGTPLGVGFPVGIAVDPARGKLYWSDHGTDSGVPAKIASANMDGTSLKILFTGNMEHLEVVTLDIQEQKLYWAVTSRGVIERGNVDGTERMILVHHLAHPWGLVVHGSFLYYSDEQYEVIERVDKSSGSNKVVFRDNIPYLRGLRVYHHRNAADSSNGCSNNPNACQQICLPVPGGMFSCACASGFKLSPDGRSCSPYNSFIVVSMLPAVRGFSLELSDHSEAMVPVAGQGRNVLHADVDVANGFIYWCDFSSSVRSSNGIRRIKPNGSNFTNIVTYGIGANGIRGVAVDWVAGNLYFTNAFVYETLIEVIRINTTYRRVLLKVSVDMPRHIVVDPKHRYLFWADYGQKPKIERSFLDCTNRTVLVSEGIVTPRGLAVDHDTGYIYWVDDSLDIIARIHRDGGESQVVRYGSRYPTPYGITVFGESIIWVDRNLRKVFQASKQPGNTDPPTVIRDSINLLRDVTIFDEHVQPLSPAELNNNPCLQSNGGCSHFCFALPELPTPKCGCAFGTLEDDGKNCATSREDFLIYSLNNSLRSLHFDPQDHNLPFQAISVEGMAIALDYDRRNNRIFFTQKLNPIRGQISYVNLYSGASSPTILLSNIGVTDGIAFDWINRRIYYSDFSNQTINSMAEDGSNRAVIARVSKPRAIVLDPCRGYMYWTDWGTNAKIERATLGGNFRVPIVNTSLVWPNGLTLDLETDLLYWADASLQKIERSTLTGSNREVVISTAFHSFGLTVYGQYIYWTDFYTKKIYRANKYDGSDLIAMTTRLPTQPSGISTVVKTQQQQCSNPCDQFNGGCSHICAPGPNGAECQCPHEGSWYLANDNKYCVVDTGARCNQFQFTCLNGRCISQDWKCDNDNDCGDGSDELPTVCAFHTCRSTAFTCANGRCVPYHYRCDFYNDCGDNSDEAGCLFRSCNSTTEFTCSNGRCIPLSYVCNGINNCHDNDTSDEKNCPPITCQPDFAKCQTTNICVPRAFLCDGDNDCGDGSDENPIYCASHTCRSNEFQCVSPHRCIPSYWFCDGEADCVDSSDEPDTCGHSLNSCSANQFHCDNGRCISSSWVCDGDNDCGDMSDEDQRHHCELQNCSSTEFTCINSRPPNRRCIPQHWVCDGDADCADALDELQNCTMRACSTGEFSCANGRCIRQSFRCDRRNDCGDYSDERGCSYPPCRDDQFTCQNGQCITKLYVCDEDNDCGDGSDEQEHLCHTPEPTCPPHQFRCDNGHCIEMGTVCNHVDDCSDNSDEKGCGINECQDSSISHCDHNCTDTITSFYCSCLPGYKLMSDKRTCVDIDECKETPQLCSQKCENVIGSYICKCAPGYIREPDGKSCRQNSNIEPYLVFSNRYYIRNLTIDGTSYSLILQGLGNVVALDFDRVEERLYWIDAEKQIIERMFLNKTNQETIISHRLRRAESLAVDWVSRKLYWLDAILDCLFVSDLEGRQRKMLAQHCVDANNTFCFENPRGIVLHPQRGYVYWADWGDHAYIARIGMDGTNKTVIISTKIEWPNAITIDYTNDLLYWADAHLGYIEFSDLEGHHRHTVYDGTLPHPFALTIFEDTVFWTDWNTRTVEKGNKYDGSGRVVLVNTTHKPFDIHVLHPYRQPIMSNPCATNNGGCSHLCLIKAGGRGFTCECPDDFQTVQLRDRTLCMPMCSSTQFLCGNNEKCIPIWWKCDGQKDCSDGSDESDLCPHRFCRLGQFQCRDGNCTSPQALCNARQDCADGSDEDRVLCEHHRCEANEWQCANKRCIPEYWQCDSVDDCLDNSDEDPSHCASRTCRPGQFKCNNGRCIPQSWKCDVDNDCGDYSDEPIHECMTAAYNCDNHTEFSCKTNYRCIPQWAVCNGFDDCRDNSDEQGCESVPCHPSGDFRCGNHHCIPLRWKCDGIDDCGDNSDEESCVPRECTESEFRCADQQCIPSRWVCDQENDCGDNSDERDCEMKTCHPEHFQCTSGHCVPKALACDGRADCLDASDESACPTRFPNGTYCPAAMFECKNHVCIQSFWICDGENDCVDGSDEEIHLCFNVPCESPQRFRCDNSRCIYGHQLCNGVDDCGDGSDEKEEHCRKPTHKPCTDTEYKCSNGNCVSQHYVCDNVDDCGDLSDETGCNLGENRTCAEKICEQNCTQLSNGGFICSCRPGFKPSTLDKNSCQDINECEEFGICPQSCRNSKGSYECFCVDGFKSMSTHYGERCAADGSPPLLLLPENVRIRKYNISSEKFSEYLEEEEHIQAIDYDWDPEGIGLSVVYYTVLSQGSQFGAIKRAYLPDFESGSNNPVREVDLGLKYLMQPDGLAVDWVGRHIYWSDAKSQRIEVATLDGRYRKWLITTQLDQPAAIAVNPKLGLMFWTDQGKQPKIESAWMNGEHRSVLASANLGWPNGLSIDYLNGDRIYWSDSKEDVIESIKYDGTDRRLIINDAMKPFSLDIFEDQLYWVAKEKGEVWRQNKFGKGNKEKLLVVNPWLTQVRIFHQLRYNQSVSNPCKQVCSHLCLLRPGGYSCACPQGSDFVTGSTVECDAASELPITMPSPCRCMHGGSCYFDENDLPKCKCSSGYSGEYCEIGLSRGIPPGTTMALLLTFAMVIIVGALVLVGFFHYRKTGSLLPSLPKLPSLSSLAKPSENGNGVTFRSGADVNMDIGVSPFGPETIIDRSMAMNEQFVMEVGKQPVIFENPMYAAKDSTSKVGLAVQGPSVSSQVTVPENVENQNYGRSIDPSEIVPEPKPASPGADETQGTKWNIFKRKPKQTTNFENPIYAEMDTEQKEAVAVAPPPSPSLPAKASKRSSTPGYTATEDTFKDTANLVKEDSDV

Regarding gentamicin, in [1], the “accumulation of administered aminoglycoside in the kidneys” value was “about 10%” and the “secretion of administered aminoglycoside into the urine” value came out at 40%. Besides, in [2], the “accumulation of aminoglycoside in the kidneys” value is listed as “no accumulation” and the “secretion of antibiotic into the urine” value was determined as 40%. In data set [3] (BIAcore, FIG. 3 panel A), the binding to megalin result is given as “direct binding”. In addition, the “effect of EDTA on binding to megalin” value in [3] (setting [10]) is “does not abolish binding”. Besides, in data set [3] (reduced receptor), the “effect of reduction of disulfide-bridges on binding to megalin” value is listed as “does not significantly interefere with ligand binding”. Further, the binding to cubilin result in [4] (BIAcore, FIG. 3 panel B) was “direct binding”. Besides, in data set [4] (setting [10]), the “effect of EDTA on binding to cubilin” value is given as “does not abolish binding”. Also, in data set [4], the “effect of reduction of disulfide-bridges on binding to cubilin” value is given as “does not significantly interefere with ligand binding”. The “inhibition of uptake of radio-labeled gentamicin into mouse kidney” value in data set [5] is recorded as “can be inhibited”.

Regarding poly-L-lysine, in data set [6], the “inhibition of cellular accumulation of radiolabeled gentamicin” value (shortened to “inhibition … of radiolabeled gentamicin”) is listed as “can be inhibited”. The “inhibition of uptake of radio-labeled gentamicin into mouse kidney” value in [5] was “can be inhibited”.

Take polymyxin B: the “reduction of uptake of aminoglycosides into the kidneys” value in data set [7] was “more than 60%”. In addition, the “inhibition … of radiolabeled gentamicin” value in data set [6] is on record as “inhibit gentamioin uptake”. The “inhibition of uptake of radio-labeled gentamicin into mouse kidney” value in [5] was “can be inhibited”.

As to poly-L-aspartate, the “inhibition … of radiolabeled gentamicin” value in data set [6] is “not”.

For the compound aprotinin, in data set [6], the “inhibition … of radiolabeled gentamicin” value is “inhibit gentamioin uptake”.

As to “RAP: receptor-associated protein, a cellular protein comprising about 300 amino acids, known to bind to megalin”, in data set [4], the “effect of reduction of disulfide-bridges on binding to cubilin” value was “significantly inhibited”. Moreover, the “inhibition … of radiolabeled gentamicin” value in data set [6] is recorded as “able to inhibit at least partly”.

Take `NCC[C@H](O)C(=O)N[C@@H]1C[C@H](N)[C@@H](O[C@H]2O[C@H](CN)[C@@H](O)[C@H](O)[C@H]2O)[C@H](O)[C@H]1O[C@H]1O[C@H](CO)[C@@H](O)[C@H](N)[C@H]1O` [amikacin]: the “poorer binding than gentamicin to megalin” value in data set [8] is “about 5 times”. Also, in data set [9], the rate of toxicity is given as 1-4%.
